From US6348205B1, “Use of carbonic acid for stabilizing or increasing the epidermal ceramide synthesis rate” (Beiersdorf AG, priority 1997, dated 2002)
Where two headings read alike, the source gives them in different places.

Key:
[1] = tested on: irritated skin (epidermal permeability barrier)
Method: (§1) For the standardized washing, a normal commercially available shampoo which, according to the manufacturer, contains […] active cleansing substances was diluted with distilled water until it contained 10% active cleansing substances in the solution ready for use.
(§2) Tap water was used for the part-affusions with pure water.
(§3) The carbonated water employed was mechanically produced using an impregnation device in which tap water was supplemented with carbon dioxide under elevated pressure.
(§4) All the part-affusions take place at a temperature of 37° C.
(§5) The test was carried out as unilateral test on 20 test subjects (13 women and 7 men between 23 and 28 years of age). The volunteer test subjects were not subjected to any selection conditions apart from right-handedness. For random distribution, one half of the participants was treated with carbonic acid on the right hand and the other half was treated on the left hand.
(§6) Over a period of 2 weeks, the back of one hand of the test subjects was rinsed with carbonic acid for 1 min once a day. The other was rinsed with pure water as control. At the same time, the backs of both hands were repeatedly irritated by a standardized washing with the shampoo solution twice a day.
(§7) The effect of carbonic acid or pure water on the dermatophysiological parameters of irritated skin was measured using noninvasive dermatophysiological investigation methods.
(§8) The transepidermal water loss (TEWL) as a measure of the permeability barrier function was measured using the evaporimetry method. An EP1 evaporimeter (Servomed & Co., Hasselby, Stockholm, Sweden) was used. The relative skin hydration (RSH) was measured using the capacitance measurement method. A CM 820 PC corneometer (Courage & Khazaka Electronic GmbH, Cologne, Germany) was used. The measurements have been reported as mean of 2 recordings (evaporimetry) or 3 recordings (corneometry).
(§9) All the tests took place in the partially air-conditioned dermatophysiology laboratory at Osnabrück University.

irritated skin = settings: 2 weeks, 1 min rinse once a day, washing with shampoo solution twice a day; backs of hands
Method: as §1, §2, §3, §4, §5, §6, §7, §8, §9

[2] = tested on: epidermal ceramide synthesis; settings: SLS-irritated forearm; for values for the ceramide fraction (peak areas) versus test area treated with pure water: 1 min rinse daily, WILCOXON paired differences test
Method: On the first investigation date, test plasters with 60 μl of 1% strength sodium lauryl sulfate (conventional synthetic surfactant frequently used in dermatological irritability research) were stuck onto in each case 3 test sites on the right and left forearm, and the epidermal lipids (baseline values before irritation) were obtained in vivo on the 4th test site on the right and left forearm. After 24 h, the test plasters were removed and all the previously irritated test sites were again irritated with sodium lauryl sulfate with occlusion for 24 h.
The intention of the cumulative irritation with sodium lauryl sulfate for 2×24 h on two consecutive days was initially to induce disturbance of the epidermal barrier, including damage to the epidermal lipid lamellae.
On the first investigation day after the irritation (Monday), the rinsing was preceded by in vivo delipidation in each case of one irritated test site on the forearm to be treated with carbonic acid and that to be treated with pure water.
Pure water was used on the comparison side for reasons of standardization. […] Use of pure water on the comparison side thus makes it possible to state that the effects which are found are attributable exclusively to the carbonic acid.
The eluate of solvent and epidermal lipids obtained in vivo was initially evaporated under nitrogen, and the epidermal lipids were then frozen. In this way, the samples for chromatography were initially collected from all the subjects during the investigations.
For the investigations by thin-layer chromatography, the 8 samples from each subject were thawed and, using different concentrations of the standard mixture, developed and detected on a thin-layer plate.
Determination of the lipid pattern before irritation, immediately after irritation and after use for one week and two weeks of carbonic acid or pure water makes it possible to make detailed statements about the regeneration of the epidermal barrier and any effects of the use of carbonic acid on individual lipid fractions of the epidermal barrier lipids. […]

Structure (SMILES): O=C(O)O [carbonic acid]
- increase in TEWL (comparison of medians) versus pure water ([1]; 2 weeks, 1 min rinse once a day, washing with shampoo solution twice a day, backs of hands): smaller increase in the TEWL
- TEWL 30 min after use versus test regions treated with pure water ([1]; 30 min after use, all days with the exception of the first day, P<0.05): significantly lower
- TEWL values versus test area treated with pure water ([1]; on days 3, 6, 7 and 8, values before daily use, WILCOXON paired differences test, P<0.05): significantly lower
- baseline values of the RSH and RSH 30 min after use versus pure water (irritated skin): higher (in some cases significantly higher)
- values for the ceramide fraction (peak areas) after the treatments versus baseline values ([2]; after treatment for one and two weeks): significantly higher than the baseline values
- values for the ceramide fraction (peak areas) versus test area treated with pure water ([2]; after treatment for one week): higher, nearly significantly so (p<0.05)
- values for the ceramide fraction (peak areas) versus test area treated with pure water ([2]; after treatment for two weeks): significantly so (p<0.01)
